From paper PMC10983001, “Development of Cytotoxic GW7604-Zeise’s Salt Conjugates as Multitarget Compounds with Selectivity for Estrogen Receptor- Positive Tumor Cells” (Journal of Medicinal Chemistry, 2024) come the findings set out here.

Series [1] has as its system 5′-guanosine monophosphate (5′-GMP). Kind of series: Reaction with 5′-GMP (ESI-HR-MS). Format: binding. The conditions noted are these: 100 μM, MeOH/water 80/20, 5 min. The procedure:
Thereto, GW7604-Pent-PtCl3 was incubated in a 1:1 ratio with 5′-GMP in a MeOH/water mixture [80/20, (v/v)], and the reaction products were identified by ESI-HR-MS after 5 min and 24 h.
GW7604-Pent-PtCl3 dissolved in MeOH was combined with an aqueous solution of 5′-GMP (disodium salt) to get an [80/20 (v/v)] solution with a complex concentration of 1 mM and a complex/5′-GMP proportion of 1/1.1. The mixture was diluted %1/10 (v/v)] with MeOH/water [80/20 (v/v)], reaching a final complex concentration of 100 μM, and ESI-HR-MS spectra were recorded after 5 min and 24 h. The obtained spectra were analyzed with MestreNova v14.

The test system of series [2] is MCF-7 cells. Kind of series: Comet assay. In kind it is cell-based, human. The settings on record: MCF-7, 20 μM, 48 h. As for the experimental part:
The comet assay (Figure 10), however, documents different consequences of DNA binding. […] The picture (Figure 10C) is very similar to that of the solvent control (Figure 10A).
MCF-7 cells were seeded at a density of 1.0 × 10^6 cells into a 25 cm^2 flask, followed by 24 h of incubation in a humidified atmosphere (5% CO2/95% air) at 37 °C. […] Cells were incubated with the compounds for 48 h. The assay was performed according to the manufacturer’s protocol (Comet assay kit, Abcam, Cambridge, UK). Briefly, after lysis and application to the microscopy slides, electrophoresis was run in an alkaline buffer for 20 min at 2 V/cm. Subsequently, slides were washed with pure deionized water and EtOH/water [7/3 (v/v)], and stained with Vista Green DNA Dye. Visualization was carried out by real-time live confocal microscopy using an inverted microscope (Zeiss Observer Z1) in arrangement with a spinning disc confocal system (UltraVIEW VoX).

The test system of series [3] is SKBr3 cells. Description: Cellular uptake (platinum by HR-CS-AAS), SKBr3. In kind it is cell-based, human. The settings on record: 8 h. As for the experimental part: In order to reach the DNA, the complexes must first pass through the cell membrane and penetrate into the nuclei. Therefore, the cellular uptake kinetics of GW7604-Alk-PtCl3 complexes were studied using the example of GW7604-Pent-PtCl3. This complex and Cisplatin, respectively, were incubated at a concentration of 20 μM with MCF-7 or SKBr3 cells. After various time points [i.e., 0 (3 min), 0.5, 1, 2, 4, and 8 h], cell pellets were prepared, and the platinum content was quantified by high-resolution continuum source atomic absorption spectrometry (HR-CS-AAS).[52]
After thawing of the cell/nuclei pellets, they were resuspended in ultrapure water (Siemens LaboStar, Günzburg, Germany; 300 μL) and lyzed with a sonotrode (Bandelin Sonoplus, Berlin, Germany; parameters 20 s, 9 cycles, 80% power). Graphite furnace (GF) AAS was used to quantify the lysates concerning their content of platinum (λ = 265.9450 nm). For this purpose, a contrAA 700 High-Resolution-Continous Source AAS (Analytik Jena, Jena, Germany) was employed, while atomization took place by electrothermal heating of graphite tubes with an inserted platform (Analytik Jena, Jena, Germany). A time–temperature program reported in the literature[25] was followed with minor adjustments. The liquid samples kept in 0.5 mL polystyrene vials (Gesellschaft für Analysentechnik, Salzwedel, Germany) were injected directly into the pyrolytically coated tubes using an MPE 60 autosampler (Analytik Jena, Jena, Germany). Throughout the measurements, argon (Alphagaz 1, 99.999%, Air Liquide, Düsseldorf, Germany) served as the purge and protective gas. The spectrometer was monitored with the ASpect CS software, version 2.3.1.0 (Analytik Jena, Jena, Germany). For all runs, the mean integrated absorbance was determined after three injections of each standard or sample. Calibration was performed by an appropriate dilution of a solution of Cisplatin (Sigma-Aldrich, Taufkirchen, Germany) obtaining five standards (2–10 μg/L, R^2 ≥ 0.982). Each cell/nuclei lysate was quantified concerning its protein content following the method of Bradford[71] in order to express the uptake as the amount of compound (pmol) in the lysate relative to its protein mass (mg). Therefore, solutions of Albumin fraction V (Carl Roth, Karlsruhe, Germany) diluted with ultrapure water were adduced for the calibration (six standards, 50–300 μg/mL, R^2 ≥ 0.996). […] All standards and lysates were measured in duplicate. After incubating for 5 min at rt, the absorbance (λ = 595 nm) was read on a microplate reader (Tecan Safire 2, Männedorf, Switzerland). […]

Series [4] addresses T1, ERα ligand-binding domain (Homo sapiens, UniProt P03372).
T1 construct: purchased Invitrogen
T1 sequence (P03372 311-547 limits assumed): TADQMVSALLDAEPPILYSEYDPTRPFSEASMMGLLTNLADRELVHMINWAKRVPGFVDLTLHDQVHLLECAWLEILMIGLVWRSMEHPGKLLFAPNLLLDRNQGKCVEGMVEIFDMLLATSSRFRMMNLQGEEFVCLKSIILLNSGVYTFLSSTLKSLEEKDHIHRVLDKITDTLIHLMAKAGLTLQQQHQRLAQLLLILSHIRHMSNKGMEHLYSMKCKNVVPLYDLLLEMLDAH
Kind of series: TR-FRET ligand binding assay, isolated LBD of ERα. As for the experimental part:
A modified LanthaScreen TR-FRET alpha/beta assay was performed, according to the manufacturer’s protocol (Invitrogen, Carlsbad, […]), to determine the binding affinity to the isolated LBD. […] Measurements were carried out on a multimode plate reader, Tecan Spark (Tecan, Männedorf, Switzerland). Calculations and visualization were performed with GraphPad Prism 8.0 (GraphPad Software, San Diego, CA, USA).

As usually defined, the IC50 is the concentration that gives 50% inhibition. In the case of `CCC(=C(c1ccc(O)cc1)c1ccc(C=CC(=O)OCCC[CH]2[CH2][Pt-]2([Cl])([Cl])[Cl])cc1)c1ccccc1.[K+]` (mixture of isomers) [GW7604-Pent-PtCl3, Potassium trichlorido[η^2-(pent-4-en-1-yl (E)-3-(4-((E/Z)-1-(4-hydroxyphenyl)-2-phenylbut-1-en-1-yl)phenyl)acrylate)]platinate(II)], in series [1], the “adduct formation with 5′-GMP” value is 5′-GMP-platinum adducts were present. The “comet tails (DNA cross-links)” value in series [2] is “did not show this effect”. Also, in series [3] (20 μM), the “platinum amount in SKBr3 relative to MCF-7 cells” value is given as “about one-twelfth”. In series [3] (SKBr3, 20 μM), this compound returned an intracellular platinum amount of 67 pmol/mg. The “RBA (ERα)” value in series [4] (RBA(E2) = 100%) came out at 7.29%. Also, in series [4] (read-out: IC50 (ERα), displacement from the LBS), the IC50 amounted to 4.81 nM.
